Laboratory results as given in patent US11203633B2, “Polynucleotides encoding antibodies or antigen binding fragments thereof that bind pseudomonas perv” (priority 2011, dated 2021).

Legend:
[1] = tested on: P. aeruginosa strains 6077, 6206, 6294; experiment: Thermal injury model in mice, survival; format: in vivo, Pseudomonas aeruginosa; conditions: 6077 2×10^5 CFU, FIG. 8E
Procedure: (§1) Antibodies or PBS were administered 24 hours before infection in each model. P. aeruginosa acute pneumonia, keratitis, and thermal injury infection models were performed as described (DiGiandomenico, A., et al., Proc Natl Acad Sci USA 104, 4624-4629 (2007)), with modifications. In the acute pneumonia model, BALB/c mice (The Jackson Laboratory) were infected with P. aeruginosa strains suspended in a 0.05 ml inoculum. In the thermal injury model, CF-1 mice (Charles River) received a 10% total body surface area burn with a metal brand heated to 92° C. for 10 seconds. Animals were infected subcutaneously with P. aeruginosa strain 6077 at the indicated dose. For organ burden experiments, acute pneumonia was induced in mice followed by harvesting of lungs, spleens, and kidneys 24 hours post-infection for determination of CFU.
Survival effect of the Bs4-GLO bispecific antibody was evaluated in a P. aeruginosa thermal injury model against different P. aeruginosa strains. […] Animals were treated with Bs4-GLO or […] to induction of thermal injury and subcutaneous infection with P. aeruginosa strain (A) 6077 (O11-ExoU^+) or (B) 6206 (O11-ExoU^+) or (C) 6294 (06) directly under the wound.
(A) Animals were treated with Bs4-GLO or R347 (A) 4h hours or (B) 12 hours after induction of thermal injury and subcutaneous infection with P. aeruginosa strain 6077 (O11-ExoU^+) directly under the wound.

[2] = tested on: P. aeruginosa strains (PAO1, 33356, 6294, 6077, 6206); experiment: Acute pneumonia model in mice, organ burden (CFU in lung, spleen, kidneys); format: in vivo, Pseudomonas aeruginosa
Procedure: as §1
Organ burden of Pseudomonas-infected mice was also studied in response to administration of V2L2. FIG. 14 (A) Mice were treated with either 1 mg/kg R347 (control), or 1 mg/kg, 0.2 mg/kg, or 0.07 mg/kg of V2L2 and then were infected intranasally with 1.2×10^6 cfu of Pseudomonas 6206. FIG. 14 (B) Mice were also treated with either 15 mg/kg R347 (negative control); 15.0 mg/kg, 5.0 mg/kg, or 1.0 mg/kg mAb166 (positive control); or 5.0 mg/kg, 1.0 mg/kg, or 0.2 mg/kg V2L2 and then were infected intranasally with 5.5×10^6 cfu of Pseudomonas 6206.
The in vivo effect of combination administration of anti-Psl and anti-PcrV binding domains was further studied in mice using the antibodies V2L2 and WapR-004 (RAD). Groups of mice were treated with R347 (2.1 mg/kg—negative control), V2L2 (0.1 mg/kg), W4-RAD (0.5 mg/kg), or V2L2/W4 combination (either 0.1, 0.5, 1.0 or 2.0 mg/kg each). Twenty-four hours post-administration of antibody, all mice were infected with an inoculum containing 5.25×10^5 cfu 6206 (O11-ExoU+). Twenty-four hours post infection, lungs, spleens, and kidneys were harvested, homogenized, and plated for colony forming unit (CFU) identification per gram of tissue.

In the case of “Cam-003: anti-Psl human IgG1 monoclonal antibody; VH SEQ ID NO:1, VL SEQ ID NO:2”, the “survival R347 vs. Cam-003, log-rank P” value ([1]; 5 mg/kg) is reported as 0.0017, the “survival R347 vs. Cam-003, log-rank P” value ([1]; 15 mg/kg) is reported as 0.0094 and the “protection compared to the antibody-treated control” value ([1]; CF-1 mice) is reported as “significant protection at 15 and 5 mg/kg”. The “viable CFU vs. R347, Mann-Whitney U-test P” value ([2]; 6077 1×10^6 CFU, lung, 45 mg/kg, FIG. 7D) was 0.0005, the “viable CFU vs. R347, Mann-Whitney U-test P” value ([2]; 6077, kidneys, 5 mg/kg, FIG. 7D) was 0.0021 and the “viable CFU vs. R347, Mann-Whitney U-test P” value ([2]; 6077, kidneys, 15 mg/kg, FIG. 7D) was 0.0355. For the same substance, the “viable CFU vs. R347, Mann-Whitney U-test P” value ([2]; 6077, kidneys, 45 mg/kg, FIG. 7D) was 0.0191, the “viable CFU vs. R347, Mann-Whitney U-test P” value ([2]; 6077, lung, 5 mg/kg, FIG. 7D) was 0.0007 and the “viable CFU vs. R347, Mann-Whitney U-test P” value ([2]; 6077, lung, 15 mg/kg, FIG. 7D) was 0.0003. For the same substance, the “viable CFU vs. R347, Mann-Whitney U-test P” value ([2]; 6077, spleen, 5 mg/kg, FIG. 7D) was 0.0089, the “viable CFU vs. R347, Mann-Whitney U-test P” value ([2]; 6077, spleen, 15 mg/kg, FIG. 7D) was 0.0089 and the “viable CFU vs. R347, Mann-Whitney U-test P” value ([2]; 6077, spleen, 45 mg/kg, FIG. 7D) was 0.0015. The “viable CFU vs. R347, Mann-Whitney U-test P” value ([2]; 6294 6.25×10^6 CFU, lung, 5 mg/kg, FIG. 7C) was 0.0068, the “viable CFU vs. R347, Mann-Whitney U-test P” value ([2]; 6294 6.25×10^6 CFU, lung, 15 mg/kg, FIG. 7C) was 0.0039 and the “viable CFU vs. R347, Mann-Whitney U-test P” value ([2]; 6294 6.25×10^6 CFU, lung, 45 mg/kg, FIG. 7C) was 0.0003. For the same substance, the “viable CFU vs. R347, Mann-Whitney U-test P” value ([2]; 6294 6.25×10^6 CFU, spleen, 5 mg/kg, FIG. 7C) was 0.0012, the “viable CFU vs. R347, Mann-Whitney U-test P” value ([2]; 6294 6.25×10^6 CFU, spleen, 15 mg/kg, FIG. 7C) was 0.0230 and the “viable CFU vs. R347, Mann-Whitney U-test P” value ([2]; 6294 6.25×10^6 CFU, spleen, 45 mg/kg, FIG. 7C) was 0.0057. The “viable CFU vs. R347, Mann-Whitney U-test P” value ([2]; 33356 1×10^7 CFU, lung, 45 mg/kg, FIG. 7B) was 0.0010, the “viable CFU vs. R347, Mann-Whitney U-test P” value ([2]; 33356, lung, 5 mg/kg, FIG. 7B) was 0.0045 and the “viable CFU vs. R347, Mann-Whitney U-test P” value ([2]; PAO1 1.1×10^7 CFU, lung, 45 mg/kg, FIG. 7A) was 0.0015. For the same substance, the “viable CFU vs. R347, Mann-Whitney U-test P” value ([2]; PAO1, kidneys, 15 mg/kg, FIG. 7A) was 0.0056, the “viable CFU vs. R347, Mann-Whitney U-test P” value ([2]; PAO1, kidneys, 45 mg/kg, FIG. 7A) was 0.0092 and the “viable CFU vs. R347, Mann-Whitney U-test P” value ([2]; PAO1, lung, 5 mg/kg, FIG. 7A) was 0.0015. The “viable CFU vs. R347, Mann-Whitney U-test P” value ([2]; PAO1, lung, 15 mg/kg, FIG. 7A) was 0.0021, the “viable CFU vs. R347, Mann-Whitney U-test P” value ([2]; PAO1, spleen, 15 mg/kg, FIG. 7A) was 0.0367 and the “viable CFU vs. R347, Mann-Whitney U-test P” value ([2]; PAO1, spleen, 45 mg/kg, FIG. 7A) was 0.0120. For the same substance, the “organ burden, dose dependence” value ([2]; cytotoxic strain 6077, FIG. 7D) was “the low dose was as effective as the higher dose”, the “dissemination to the spleen and kidneys” value ([2]; mice infected with PAO1, 6294 and 6077, FIG. 7A, C, D) was “marked effect in reducing dissemination to the spleen and kidneys” and the lung burden ([2]; strains PAO1, 33356, 6294, 6077, FIG. 7A-D) was “effective at reducing P. aeruginosa lung burden against all four strains tested”.
